Assay results taken from patent US20090069320A1, “Substituted 4-Amino-Quinazoline Compounds with Metabotropic Glutamate Receptor Regulating Activity and Uses Thereof” (Gruenenthal GmbH, priority 2006, published 2009).
pIC50: −log10 of the molar value. Where a name gives a salt, the structure may show the parent alone.

Molecular target: T1, mGluR5 receptor (Sus scrofa, UniProt I3LUI7)
T1 construct: 450 μg of protein from brain homogenate with 5 nM ^3[H]-MPEP; from tissue; host or cells: pig brain halves without medulla, cerebellum and pons
Assay: [3H]-MPEP mGluR5 receptor binding assay (pig brain homogenate)
Conditions: 5 nM [3H]-MPEP; for inhibition at 10 µM / % Inhibition of mGluR5 Receptor (pig) [^3H]-MPEP Bond at 10 μM: 10 μM compound; for inhibition at 10 µM: read-out: % Inhibition of mGluR5 Receptor (pig) [^3H]-MPEP Bond at 10 μM; for pIC50: read-out: IC50 mGluR5 Receptor (pig) [^3H]-MPEP Bond
In short: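 Radioligand displacement of 5 nM [3H]-MPEP from pig brain homogenate (450 μg protein; medulla, cerebellum and pons removed) in 20 mM Hepes pH 8.0. Compounds were tested at 10 μM, incubated 60 min at room temperature, then filtered and counted by scintillation. Non-specific binding was defined with 10 μM MPEP.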

T1 sequence (I3LUI7 19-1212): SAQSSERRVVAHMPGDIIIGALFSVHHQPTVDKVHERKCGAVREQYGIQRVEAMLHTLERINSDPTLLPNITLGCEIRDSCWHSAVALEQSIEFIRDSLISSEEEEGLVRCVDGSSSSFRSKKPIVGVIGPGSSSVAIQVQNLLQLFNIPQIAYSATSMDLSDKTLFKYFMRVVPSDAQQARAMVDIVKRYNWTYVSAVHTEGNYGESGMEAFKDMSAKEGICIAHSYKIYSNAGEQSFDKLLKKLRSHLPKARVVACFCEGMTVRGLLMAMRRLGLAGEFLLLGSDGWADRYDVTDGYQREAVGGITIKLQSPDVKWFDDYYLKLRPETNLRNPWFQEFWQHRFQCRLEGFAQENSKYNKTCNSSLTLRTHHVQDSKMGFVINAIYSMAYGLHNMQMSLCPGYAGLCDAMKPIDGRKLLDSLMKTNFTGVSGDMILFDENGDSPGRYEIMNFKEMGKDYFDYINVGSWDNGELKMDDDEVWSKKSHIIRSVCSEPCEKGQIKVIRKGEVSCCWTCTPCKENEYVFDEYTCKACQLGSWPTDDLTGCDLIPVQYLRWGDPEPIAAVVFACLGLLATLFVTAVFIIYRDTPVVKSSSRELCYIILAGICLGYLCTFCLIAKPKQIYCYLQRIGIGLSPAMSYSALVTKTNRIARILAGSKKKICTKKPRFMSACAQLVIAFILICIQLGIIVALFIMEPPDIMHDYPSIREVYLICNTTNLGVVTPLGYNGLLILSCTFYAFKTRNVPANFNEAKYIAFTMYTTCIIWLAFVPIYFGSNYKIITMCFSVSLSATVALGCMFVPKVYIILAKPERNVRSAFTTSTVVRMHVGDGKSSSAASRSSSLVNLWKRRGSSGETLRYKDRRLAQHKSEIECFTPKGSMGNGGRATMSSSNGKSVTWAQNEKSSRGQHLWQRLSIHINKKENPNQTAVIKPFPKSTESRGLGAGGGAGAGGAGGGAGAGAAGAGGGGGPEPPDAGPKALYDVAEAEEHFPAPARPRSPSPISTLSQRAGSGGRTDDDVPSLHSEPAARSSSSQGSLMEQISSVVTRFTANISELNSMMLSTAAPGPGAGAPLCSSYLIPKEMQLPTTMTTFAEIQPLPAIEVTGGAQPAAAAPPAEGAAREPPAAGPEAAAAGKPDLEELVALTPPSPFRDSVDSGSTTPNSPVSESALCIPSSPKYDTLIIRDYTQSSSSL

| inhibition at 10 µM | SMILES | also measured |
| --- | --- | --- |
| 90% | Cc1nc(C(=O)N(Cc2cccc(-c3cc(F)c4ncnc(NC5CC5)c4c3)c2)C2CC2)cs1 [Example 830, N-cyclopropyl-N-(3-(4-(cyclopropylamino)-8-fluoroquinazolin-6-yl)benzyl)-2-methylthiazole-4-carboxamide] | – |
| 40% | Cc1nc(NC2CC2)c2cc(-c3ccc(F)c(CN(C(=O)c4ccccc4)C4CC4)c3)ccc2n1 [Example 550, N-cyclopropyl-N-(5-(4-(cyclopropylamino)-2-methylquinazolin-6-yl)-2-fluorobenzyl)benzamide] | – |
| 87% | O=C(CCc1ccccc1)N(Cc1cccc(-c2cc(F)c3ncnc(NC4CC4)c3c2)c1)C1CC1 [Example 703, N-cyclopropyl-N-(3-(4-(cyclopropylamino)-8-fluoroquinazolin-6-yl)benzyl)-3-phenylpropanamide] | – |
| 43% | O=C(CCc1ccccc1)N(Cc1cc(-c2ccc3ncnc(NC4CC4)c3c2)ccn1)C1CC1 [Example 847, N-cyclopropyl-N-((4-(4-(cyclopropylamino)quinazolin-6-yl)pyridin-2-yl)methyl)-3-phenylpropanamide] | – |
| 83% | Cc1nc(C(=O)N(Cc2cccc(-c3cc4c(NC5CC5)ncnc4cc3C)c2)C2CC2)cs1 [Example 759, N-cyclopropyl-N-(3-(4-(cyclopropylamino)-7-methylquinazolin-6-yl)benzyl)-2-methylthiazole-4-carboxamide] | – |
| 93% | Cc1cc(C(=O)N(Cc2cccc(-c3cc(F)c4ncnc(NC5CC5)c4c3)c2)C2CC2)n(C)n1 [Example 760, N-cyclopropyl-N-(3-(4-(cyclopropylamino)-8-fluoroquinazolin-6-yl)benzyl)-1,3-dimethyl-1H-pyrazole-5-carboxamide] | – |
| 93% | Cc1nc(NC2CC2)c2cc(-c3ccc(F)c(CN(C(=O)c4ccccc4C(F)(F)F)C4CC4)c3)ccc2n1 [Example 470, N-cyclopropyl-N-(5-(4-(cyclopropylamino)-2-methylquinazolin-6-yl)-2-fluorobenzyl)-2-(trifluoromethyl)benzamide] | – |
| 62% | CNc1ncnc2ccc(-c3ccc(F)c(CN(C)S(=O)(=O)Cc4ccccc4)c3)cc12 [Example 586, N-(2-fluoro-5-(4-(methylamino)quinazolin-6-yl)benzyl)-N-methyl-1-phenylmethane sulfonamide] | – |
| 97% | Cc1nc(C(=O)N(Cc2cc(-c3ccc4ncnc(NC(C)(C)C)c4c3)ccc2F)C2CC2)cs1 [Example 825, N-(5-(4-(tert-butylamino)quinazolin-6-yl)-2-fluorobenzyl)-N-cyclopropyl-2-methylthiazole-4-carboxamide] | – |
| 60% | CNc1ncnc2ccc(-c3cccc(CN(C(=O)c4cccc(F)c4)c4ccccc4F)c3)cc12 [Example 687, 3-fluoro-N-(2-fluorophenyl)-N-(3-(4-(methylamino)quinazolin-6-yl)benzyl)benzamide] | – |
| 53% | CN(C)CC(=O)N(Cc1cccc(-c2cc(F)c3ncnc(NC4CC4)c3c2)c1)C1CC1 [Example 751, N-cyclopropyl-N-(3-(4-(cyclopropylamino)-8-fluoroquinazolin-6-yl)benzyl)-2-(dimethylamino)acetamide] | – |

The remaining lines, values behind:

| SMILES | inhibition at 10 µM | also measured |
| --- | --- | --- |
| CC(C)S(=O)(=O)N(Cc1cc(-c2ccc3ncnc(NC(C)(C)C)c3c2)ccc1F)C1CC1 [Example 822, N-(5-(4-(tert-butylamino)quinazolin-6-yl)-2-fluorobenzyl)-N-cyclopropyl propane-2-sulfonamide] | – | % Inhibition of mGluR5 Receptor (pig) [^3H]-MPEP Bond at 10 μM: 86% |
| COC(=O)CN(Cc1cccc(-c2ccc3ncnc(NC4CC4)c3c2)c1)C(=O)CC#N [Example 190, methyl 2-(2-cyano-N-(3-(4-(cyclopropylamino)quinazolin-6-yl)benzyl)acetamido)acetate] | 58% | – |
| O=S(=O)(c1ccc(Cl)cc1Cl)N(Cc1cc(-c2ccc3ncnc(NC4CC4)c3c2)ccn1)C1CC1 [Example 796, 2,4-dichloro-N-cyclopropyl-N-((4-(4-(cyclopropylamino)quinazolin-6-yl)pyridin-2-yl)methyl)benzole sulfonamide] | – | % Inhibition of mGluR5 Receptor (pig) [^3H]-MPEP Bond at 10 μM: 78% |
| CCCCC(=O)N(Cc1cccc(-c2ccc3ncnc(NCCc4ccccc4)c3c2)c1)C1CC1 [Example 409, N-cyclopropyl-N-(3-(4-(phenethylamino)quinazolin-6-yl)benzyl)pentanamide] | 32% | – |
| CCCCC(=O)N(Cc1cc(-c2ccc3ncnc(NC4CC4)c3c2)ccc1Cl)C1CC1 [Example 793, N-(2-chloro-5-(4-(cyclopropylamino)quinazolin-6-yl)benzyl)-N-cyclopropyl pentanamide] | – | % Inhibition of mGluR5 Receptor (pig) [^3H]-MPEP Bond at 10 μM: 94% |
| O=C1CCC(=O)N1Cc1cc(F)cc(-c2ccc3ncnc(NC4CC4)c3c2)c1 [Example 889, 1-(3-(4-(cyclopropylamino)quinazolin-6-yl)-5-fluorobenzyl)pyrrolidine-2,5-dione] | – | pIC50: 6.30 |
| O=C(c1c(F)c(F)c(F)c(F)c1F)N(Cc1cc(-c2ccc3ncnc(NC4CC4)c3c2)ccc1F)C1CC1 [Example 389, N-cyclopropyl-N-(5-(4-(cyclopropylamino)quinazolin-6-yl)-2-fluorobenzyl)-2,3,4,5,6-pentafluorobenzamide] | 91% | – |
| O=S(=O)(c1c(F)c(F)c(F)c(F)c1F)N(Cc1cccc(-c2cc(F)c3ncnc(NC4CC4)c3c2)c1)C1CC1 [Example 761, N-cyclopropyl-N-(3-(4-(cyclopropylamino)-8-fluoroquinazolin-6-yl)benzyl)-2,3,4,5,6-pentafluorobenzole sulfonamide] | – | % Inhibition of mGluR5 Receptor (pig) [^3H]-MPEP Bond at 10 μM: 45% |
| Cc1cc(C(=O)N(Cc2cc(-c3ccc4ncnc(NC5CC5)c4c3)ccc2F)C2CC2)n(C)n1 [Example 435, N-cyclopropyl-N-(5-(4-(cyclopropylamino)quinazolin-6-yl)-2-fluorobenzyl)-1,3-dimethyl-1H-pyrazole-5-carboxamide] | 87% | – |
| CCCCN(Cc1cccc(-c2ccc3ncnc(NC4CC4)c3c2)c1)C(C)=O [Example 218, N-butyl-N-[3-(4-cyclopropylamino-quinazolin-6-yl)-benzyl]-acetamide; hydrochloride] | – | pIC50: 5.52 |
| COc1cc2ncnc(NC3CC3)c2cc1-c1cccc(CN2C(=O)CCC2=O)c1 [Example 899, 1-(3-(4-(cyclopropylamino)-7-methoxyquinazolin-6-yl)benzyl)pyrrolidine-2,5-dione] | – | pIC50: 6.80 |
| O=S(=O)(c1ccccc1)N(Cc1cccc(-c2ccc3ncnc(NC4CC4)c3c2)c1)C1CC1 [Example 227, N-cyclopropyl-N-(3-(4-(cyclopropylamino)quinazolin-6-yl)benzyl)benzole sulfonamide] | – | pIC50: 5.59 |
| CS(=O)(=O)N(Cc1cccc(-c2cc(F)c3ncnc(NC4CC4)c3c2)c1)C1CC1 [Example 678, N-cyclopropyl-N-(3-(4-(cyclopropylamino)-8-fluoroquinazolin-6-yl)benzyl)methane sulfonamide] | – | pIC50: 6.66 |
| CC(=O)N(Cc1cc(C)cc(-c2ccc3ncnc(NC4CC4)c3c2)c1)C1CC1 [Example 239, N-cyclopropyl-N-[3-(4-cyclopropylamino-quinazolin-6-yl)-5-methyl-benzyl]-acetamide] | – | pIC50: 5.39 |
| COc1ccc(S(=O)(=O)N(Cc2cccc(-c3cc(F)c4ncnc(NC5CC5)c4c3)c2)C2CC2)cc1 [Example 694, N-cyclopropyl-N-(3-(4-(cyclopropylamino)-8-fluoroquinazolin-6-yl)benzyl)-4-methoxybenzole sulfonamide] | – | % Inhibition of mGluR5 Receptor (pig) [^3H]-MPEP Bond at 10 μM: 82% |
| COc1ccc(S(=O)(=O)N(Cc2cc(-c3ccc4ncnc(NC5CC5)c4c3)ccc2F)C2CC2)cc1 [Example 383, N-cyclopropyl-N-(5-(4-(cyclopropylamino)quinazolin-6-yl)-2-fluorobenzyl)-4-methoxybenzole sulfonamide] | – | % Inhibition of mGluR5 Receptor (pig) [^3H]-MPEP Bond at 10 μM: 69% |
| CC(C)Nc1ncnc2ccc(-c3cccc(CN(Cc4ccccc4)C(=O)c4ccsc4)c3)cc12 [Example 50, thiophene-3-carboxylic acid benzyl-[3-(4-isopropylamino-quinazolin-6-yl)-benzyl]-amide] | 30% | – |
| O=C(N(Cc1cc(-c2ccc3ncnc(NC4CC4)c3c2)ccc1F)C1CC1)C(F)(F)F [Example 870, N-cyclopropyl-N-(5-(4-(cyclopropylamino)quinazolin-6-yl)-2-fluorobenzyl)-2,2,2-trifluoroacetamide] | – | pIC50: 8.00 |
| O=C(CCc1ccccc1)N(Cc1cccc(-c2ccc3ncnc(NC4CC4)c3c2)c1)C1CC1 [Example 263, N-cyclopropyl-N-[3-(4-cyclopropylamino-quinazolin-6-yl)-benzyl]-3-phenyl-propionamide] | – | pIC50: 5.77 |
| O=C1CCC(=O)N1Cc1cc(-c2ccc3ncnc(NC4CC4)c3c2)ccc1F [Example 193, 1-(5-(4-(cyclopropylamino)quinazolin-6-yl)-2-fluorobenzyl)pyrrolidine-2,5-dione] | – | pIC50: 6.57 |
| CCCN(Cc1cccc(-c2ccc3ncnc(Nc4ccccc4)c3c2)c1)C(=O)c1cnccn1 [Example 104, pyrazine-2-carboxylic acid [3-(4-phenylamino-quinazolin-6-yl)-benzyl]-propyl-amide] | 48% | – |
| CN(C)CC(=O)N(Cc1cccc(-c2ccc3ncnc(NCCc4ccccc4)c3c2)c1)C1CC1 [Example 417, N-cyclopropyl-2-(dimethylamino)-N-(3-(4-(phenethylamino)quinazolin-6-yl)benzyl)acetamide] | 60% | – |
| CS(=O)(=O)N(Cc1cccc(-c2ccc3ncnc(NC4CC4)c3c2)c1)Cc1ccco1 [Example 215, N-(3-(4-(cyclopropylamino)quinazolin-6-yl)benzyl)-N-(furan-2-yl-methyl)methane sulfonamide] | – | pIC50: 5.44 |
